{
  "source": "patent US20160031839A1",
  "about": "“ARGININE […] INHIBITORS AND USES THEREOF” (EPIZYME, INC., priority 2013, published 2016)",
  "target": "T1, CARM1 (PRMT4) (Homo sapiens, UniProt Q86X55)",
  "T1 construct": "Flag-CARM1-His was eluted with 200 ug/ml FLAG peptide in buffer A; made in house; host or cells: HEK 293F cells (BacMam baculovirus)",
  "T1 sequence (Q86X55 2-585 isoform Q86X55-1)": "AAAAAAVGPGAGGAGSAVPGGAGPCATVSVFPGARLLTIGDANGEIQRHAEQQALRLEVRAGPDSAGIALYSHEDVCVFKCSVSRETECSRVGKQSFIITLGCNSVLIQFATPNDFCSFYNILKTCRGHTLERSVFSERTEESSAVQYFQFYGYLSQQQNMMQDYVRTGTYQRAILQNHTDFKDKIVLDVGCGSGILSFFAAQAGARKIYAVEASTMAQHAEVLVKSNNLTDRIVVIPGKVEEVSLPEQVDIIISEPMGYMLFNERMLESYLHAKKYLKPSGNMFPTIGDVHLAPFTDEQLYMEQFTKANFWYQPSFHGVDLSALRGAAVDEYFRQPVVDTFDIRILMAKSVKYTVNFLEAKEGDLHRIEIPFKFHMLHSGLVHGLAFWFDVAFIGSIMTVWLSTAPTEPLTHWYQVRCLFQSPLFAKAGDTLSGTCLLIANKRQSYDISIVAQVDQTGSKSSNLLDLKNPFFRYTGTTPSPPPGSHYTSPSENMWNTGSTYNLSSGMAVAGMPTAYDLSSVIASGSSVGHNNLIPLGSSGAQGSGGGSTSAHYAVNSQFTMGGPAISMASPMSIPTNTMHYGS",
  "assay": "CARM1 Biochemical Assay",
  "text": "Peptide representative of human histone H3 residues 16-30 was synthesized with an N-terminal linker-affinity tag motif and a C-terminal amide cap by 21st Century Biochemicals. The peptide was purified by high-performance liquid chromatography (HPLC) to greater than 95% purity and confirmed by liquid chromatography mass spectrometry (LC-MS). The sequence was Biot-Ahx-[…]-amide and contained a monomethylated arginine at position 26 (SEQ ID NO.: 14).\nHuman CARM1 (PRMT4) (NM_199141.1) transcript clone was amplified from an HEK 293 cDNA library, incorporating a flanking 5′ sequence encoding a FLAG tag ([…]) (SEQ ID NO.:6) fused directly to Ala 2 of CARM1 and 3′ sequence encoding a hexa His sequence ([…]) (SEQ ID NO.: 15) fused directly to Ser 608. The gene sequence encoding isoform1 containing a deletion of amino acids 539-561 was amplified subsequently and subcloned into pFastBacMam (Viva Biotech).\nColumn was washed with 500 mM NaCl in buffer A and Flag-CARM1-His was eluted with 200 ug/ml FLAG peptide in buffer A. Pooled fractions were dialyzed in 20 mM Tris, 150 mM NaCl, 5% glycerol and 1 mM DTT, pH 7.8. The purity of recovered protein was 94.\nGeneral Procedure for CARM1 Enzyme Assays on Peptide Substrates.\nThe assays were all performed in a buffer consisting of 20 mM Bicine (pH=7.6), 1 mM TCEP, 0.005% BSG, and 0.002% Tween 20, prepared on the day of use. Compounds in 100% DMSO (1 ul) were spotted into a polypropylene 384-well V-bottom plates (Greiner) using a Platemate Plus outfitted with a 384-channel head (Thermo Scientific). DMSO (1 ul) was added to Columns 11, 12, 23, 24, rows A-H for the maximum signal control and 1 ul of SAH, a known product and inhibitor of CARM1, was added to columns 11, 12, 23, 24, rows I-P for the minimum signal control. A cocktail (40 ul) containing the CARM1 enzyme was added by Multidrop Combi (Thermo-Fisher). The compounds were allowed to incubate with CARM1 for 30 min at room temperature, then a cocktail (10 ul) containing ^3H-SAM and peptide was added to initiate the reaction (final volume=51 ul). The final concentrations of the components were as follows: CARM1 was 0.25 nM, ^3H-SAM was 30 nM, peptide was 250 nM, SAH in the minimum signal control wells was 1 mM, and the DMSO concentration was 2%. The assays were stopped by the addition of non-radiolabeled SAM (10 ul) to a final concentration of 300 uM, which dilutes the ^3H-SAM to a level where its incorporation into the peptide substrate is no longer detectable. […] The plates were then read in a PerkinElmer TopCount plate reader to measure the quantity of ^3H-labeled peptide bound to the Flashplate surface, measured as disintegrations per minute (dpm) or alternatively, referred to as counts per minute (cpm). […]",
  "key": {"[1]": {"details": "Table 2, biochemical evaluation, read-out: PRMT4 IC50 (class)"}, "[2]": {"details": "Table 2a, numerical, single experiment or average of multiple experiments, read-out: PRMT4 IC50"}},
  "note": "Read-outs that look alike come from different tables or passages of the source.",
  "data": [
    {"smiles": "CN(CCN)Cc1ccnn1-c1ccc(C#N)cc1", "note": "[Compound 2, 4-(5-(((2-aminoethyl)(methyl)amino)methyl)-1H-pyrazol-1-yl)benzonitrile]", "values": [
      {"measurement": "IC50", "setting": "[1]", "result": "> 10", "unit": "µM"},
      {"measurement": "IC50", "setting": "[2]", "result": "> 10", "unit": "µM"}
    ]},
    {"smiles": "CN(CCN)Cc1ncoc1-c1ccc(C#N)cc1", "note": "[Compound 1, 4-(4-(((2-aminoethyl)(methyl)amino)methyl)oxazol-5-yl)benzonitrile]", "values": [
      {"measurement": "IC50", "setting": "[1]", "result": "> 10", "unit": "µM"},
      {"measurement": "IC50", "setting": "[2]", "result": "> 10", "unit": "µM"}
    ]}
  ]
}
